Reference: ChEMBL document CHEMBL1201862, “PubChem BioAssay data set” (2004)
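Briefly, cells in 96-well plates were exposed to five compound concentrations for 48 h, and endpoints were estimated by linear interpolation. GI50 is the concentration that inhibits growth by half.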 Calls of active or inactive are those of the source. Rule as the data show it: active = GI50 up to about 1.1 µM and inactive = higher.

Assays:
Test in all cases: inhibition of tumour cell growth, NCI panel, 48 h
[1] = test system: NCI-H460
[2] = test system: COLO 205
[3] = test system: OVCAR-3
[4] = test system: 786-0
[5] = test system: OVCAR-8
[6] = test system: SW-620
[7] = test system: CAKI-1
[8] = test system: HCT-116
[9] = test system: LOX IMVI
[10] = test system: UO-31
[11] = test system: TK-10
[12] = test system: K562
[13] = test system: SF-539
[14] = test system: KM-20L2
[15] = test system: DMS-273
[16] = test system: M19-MEL
[17] = test system: XF498
[18] = test system: SNB-78
[19] = test system: NCI-H23
[20] = test system: RXF 631
[21] = test system: Malme-3M
[22] = test system: HT-29
[23] = test system: SNB-19
[24] = test system: HOP-92
[25] = test system: U-251
[26] = test system: HL-60
[27] = test system: SK-OV-3
[28] = test system: SN12C
[29] = test system: SK-MEL-5
[30] = test system: EKVX
[31] = test system: ACHN
[32] = test system: A549
[33] = test system: DMS-114
[34] = test system: SNB-75
[35] = test system: SF-295
[36] = test system: M14
[37] = test system: HOP-62
[38] = test system: HCT-15
[39] = test system: UACC-257
[40] = test system: OVCAR-4
[41] = test system: RPMI-8226
[42] = test system: UACC-62
[43] = test system: SK-MEL-28
[44] = test system: MOLT-4
[45] = test system: RXF 393
[46] = test system: HOP-18
[47] = test system: DLD-1
[48] = test system: CCRF-CEM
[49] = test system: IGROV-1
[50] = test system: LXFL 529
[51] = test system: SF-268
[52] = test system: OVCAR-5
[53] = test system: NCI-H226
[54] = test system: HCC 2998
[55] = test system: KM12
[56] = test system: A498
[57] = test system: NCI-H522
[58] = test system: SK-MEL-2
[59] = test system: SR

Measured: GI50

COc1ccc(C2C(C(=O)O)=C(CO)Oc3cc4c(cc32)OCO4)c(OC)c1 (configuration not stated)
67.9 µM: [38]
inactive: [1] > 100 µM | [2] 68.7 µM | [3] 57.5 µM | [4] > 100 µM | [5] 98.4 µM | [6] > 100 µM | [7] 88.1 µM | [8] 78.2 µM | [9] 45.1 µM | [10] 36.9 µM | [11] > 100 µM | [12] 87.5 µM | [13] 70 µM | [14] > 100 µM | [15] 60.3 µM | [16] 60.4 µM | [17] 9.73 µM | [18] > 100 µM | [19] > 100 µM | [20] 87.3 µM | [21] > 100 µM | [22] 67.6 µM | [23] 70.5 µM | [24] > 100 µM | [25] 81.1 µM | [26] > 100 µM | [27] > 100 µM | [28] 43.1 µM | [29] 42.8 µM | [30] > 100 µM | [31] 63.1 µM | [32] 70.3 µM | [33] 84.5 µM | [34] > 100 µM | [35] 62.7 µM | [36] > 100 µM | [37] 18.8 µM | [39] > 100 µM | [40] 78 µM | [41] > 100 µM | [42] 57.3 µM | [43] 46.2 µM | [44] 22.5 µM | [45] > 100 µM | [46] 98.2 µM | [47] 54.7 µM | [48] 31 µM | [49] > 100 µM

COC(=O)CCC1=NOC(CC2CC(CCC(=O)OC)=NO2)C1 (configuration not stated)
inactive: [1] > 100 µM | [2] > 100 µM | [3] > 100 µM | [4] > 100 µM | [5] > 100 µM | [6] > 100 µM | [7] > 100 µM | [8] > 100 µM | [9] > 100 µM | [10] > 100 µM | [11] > 100 µM | [12] > 100 µM | [50] > 100 µM | [13] > 100 µM | [51] > 100 µM | [52] > 100 µM | [53] > 100 µM | [14] > 100 µM | [15] > 100 µM | [16] > 100 µM | [17] > 100 µM | [18] > 100 µM | [19] > 100 µM | [20] > 100 µM | [21] > 100 µM | [22] > 100 µM | [23] > 100 µM | [54] > 100 µM | [24] > 100 µM | [25] > 100 µM | [26] > 100 µM | [27] > 100 µM | [28] > 100 µM | [29] > 100 µM | [55] > 100 µM | [56] > 100 µM | [30] > 100 µM | [32] > 100 µM | [33] > 100 µM | [34] > 100 µM | [57] > 100 µM | [35] > 100 µM | [36] > 100 µM | [37] > 100 µM | [39] > 100 µM | [40] > 100 µM | [41] > 100 µM | [42] > 100 µM | [44] > 100 µM | [58] > 100 µM | [45] > 100 µM | [46] > 100 µM | [47] > 100 µM | [48] > 100 µM | [49] > 100 µM
> 100 µM: [38]

O=C1OC(=O)C2C3C=CC(C12)C1C2C=CC2C31 (configuration not stated)
inactive: [1] > 100 µM | [2] > 100 µM | [4] > 100 µM | [5] > 100 µM | [6] > 100 µM | [7] > 100 µM | [8] > 100 µM | [9] > 100 µM | [11] > 100 µM | [12] > 100 µM | [50] > 100 µM | [13] > 100 µM | [51] > 100 µM | [52] > 100 µM | [53] > 100 µM | [14] > 100 µM | [15] > 100 µM | [16] > 100 µM | [17] 42.4 µM | [19] > 100 µM | [20] > 100 µM | [21] > 100 µM | [22] > 100 µM | [23] > 100 µM | [54] > 100 µM | [24] > 100 µM | [25] > 100 µM | [26] > 100 µM | [27] > 100 µM | [28] > 100 µM | [55] > 100 µM | [56] > 100 µM | [30] > 100 µM | [31] > 100 µM | [32] > 100 µM | [57] > 100 µM | [35] > 100 µM | [37] > 100 µM | [39] > 100 µM | [40] > 100 µM | [43] > 100 µM | [44] > 100 µM | [59] > 100 µM | [58] > 100 µM | [45] > 100 µM | [46] > 100 µM | [48] > 100 µM | [49] > 100 µM

CCc1ccccc1NC(=O)c1cccc([N+](=O)[O-])c1O
25.8 µM: [38]
inactive: [1] 20.8 µM | [2] 17.2 µM | [3] 26.7 µM | [4] 71.6 µM | [5] 46.7 µM | [6] 38.4 µM | [7] 25.1 µM | [8] 24.2 µM | [9] 16.3 µM | [10] 22.2 µM | [12] 40.4 µM | [50] 36.4 µM | [13] > 100 µM | [51] 25.2 µM | [52] 17.9 µM | [53] 29 µM | [14] 24.7 µM | [15] 22.1 µM | [16] 23.6 µM | [17] 20.4 µM | [18] 37.8 µM | [19] 18.7 µM | [20] 23.7 µM | [21] 24.4 µM | [22] 26.5 µM | [23] 41.7 µM | [54] 24.7 µM | [24] 14.4 µM | [25] 23 µM | [26] 30.6 µM | [27] 25 µM | [28] 31 µM | [29] 8.89 µM | [55] 18.1 µM | [56] 25.3 µM | [30] 30.8 µM | [31] 18.1 µM | [32] 24.8 µM | [33] 17.2 µM | [34] 20.9 µM | [57] 21 µM | [35] 5.18 µM | [36] 47.5 µM | [37] 19 µM | [39] 19.9 µM | [40] 16.7 µM | [41] 5.41 µM | [42] 9.93 µM | [43] 28.2 µM | [44] 18.6 µM | [45] 8.51 µM | [46] 66.5 µM | [47] 26.7 µM | [48] 28.2 µM | [49] 23 µM

NC(=O)c1c(-c2ccccc2)c(-c2ccccc2)cc2c(=O)c3ccccc3[nH]c12
inactive: [1] 22.2 µM | [2] 29 µM | [3] 23.1 µM | [4] 8.53 µM | [5] 20.8 µM | [6] 37.1 µM | [8] 14.4 µM | [9] 45.5 µM | [10] 33.7 µM | [11] 18.5 µM | [12] 30.3 µM | [50] 16.1 µM | [13] 17.5 µM | [51] 39 µM | [52] 65.8 µM | [14] 21 µM | [15] 19.9 µM | [16] 27.6 µM | [17] 18 µM | [18] 22.3 µM | [19] 17.5 µM | [20] 27.4 µM | [21] 17.9 µM | [22] 18.9 µM | [23] 21 µM | [54] 43.2 µM | [24] 24.9 µM | [25] 31.7 µM | [27] 25.3 µM | [28] 40 µM | [29] 13.7 µM | [55] 21.8 µM | [56] 19.4 µM | [30] 41.2 µM | [31] 16.4 µM | [32] 23.8 µM | [33] 21.8 µM | [34] 23.6 µM | [57] 5.85 µM | [35] 40.4 µM | [36] 33.2 µM | [37] 24.2 µM | [39] 40.6 µM | [40] 12.5 µM | [41] 28.4 µM | [42] 25.5 µM | [43] 17.8 µM | [44] 16.4 µM | [58] 19.9 µM | [47] 35.3 µM | [48] 31.4 µM | [49] 22.1 µM
29.8 µM: [38]
